Data on 41 compounds can be found in EP4763839A1 (Pamplona Therapeutics (Shenzhen) Co., Ltd., priority 2023, dated 2025).

Like-named read-outs stand apart in the source and are kept apart here.

The target in this test is T1, IRAK4 (Homo sapiens, UniProt Q9NWZ3).
T1 sequence (Q9NWZ3 1-460): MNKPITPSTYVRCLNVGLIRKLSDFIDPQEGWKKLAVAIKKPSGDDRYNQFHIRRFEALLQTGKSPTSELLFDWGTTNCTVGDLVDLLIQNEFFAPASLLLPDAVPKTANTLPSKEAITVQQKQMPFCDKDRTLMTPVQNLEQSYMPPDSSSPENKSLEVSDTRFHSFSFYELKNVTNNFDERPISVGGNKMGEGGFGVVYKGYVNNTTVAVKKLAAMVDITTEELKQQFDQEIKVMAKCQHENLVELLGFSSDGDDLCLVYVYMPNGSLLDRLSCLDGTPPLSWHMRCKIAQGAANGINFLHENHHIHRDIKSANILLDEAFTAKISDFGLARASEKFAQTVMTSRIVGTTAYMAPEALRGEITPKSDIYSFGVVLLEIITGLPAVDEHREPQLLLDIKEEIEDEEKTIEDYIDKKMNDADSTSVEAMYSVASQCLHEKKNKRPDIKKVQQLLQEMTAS
Put plainly: Assay for inhibitory effect of compound on IRAK4 kinase activity (KinEASE-STK S1 HTRF kit). Type of test: biochemical. As to the method: Example 1: Kinase activity assay
Assay for inhibitory effect of compound on IRAK4 kinase activity
The inhibitory effect of the compound on IRAK4 kinase activity was measured using the KinEASE-STK S1 serine/threonine kinase kit (Cisbio). The specific method was as follows: the compound was dissolved in dimethyl sulfoxide and then subjected to 3-fold serial dilution in dimethyl sulfoxide, yielding final test compound concentrations in the reaction system ranging from 5,000 nM to 0.0254 nM. The kinase at a final concentration of 8 nM was added, followed by incubation at rt for 15 minutes. Subsequently, biotinylated STK1 substrate at a final concentration of 400 nM and adenosine triphosphate (ATP) at a final concentration of 80 µM were sequentially added, and the mixture was incubated at 37°C for 90 minutes. Then, the reaction was terminated by adding an anti-phosphoserine/threonine antibody conjugated with a europium cryptate and streptavidin-conjugated XL665 to the reaction system. After incubation at rt for 1 hour, the fluorescence intensity at emission wavelengths of 620 nm and 665 nm for each well was measured using an EnVision microplate reader (PerkinElmer) in HTRF mode. The ratio value was calculated using the formula: Ratio = (665 nm/620 nm)×10^4 The inhibition rate of the compound at each concentration was calculated using the formula: Inhibition% = [1-(Signal sample-Signal min)/(Signal max-Signal min)]×100. Subsequently, the dose-response curve was fitted by nonlinear curve fitting of log concentration versus inhibition rate using Fit Modela (205) in XLfit to give the IC50 value of the compound for inhibition of protein activity.
In general terms: In TR-FRET formats the signal depends on donor and acceptor labels being close together.

[1] abbreviates: kinase 8 nM, ATP 80 µM, 37°C 90 minutes, read-out: IRAK4 HTRF IC50.

In the case of `CC(=O)N1CCN(c2ccc(-n3cc(NC(=O)c4cccc(C(F)(F)F)n4)c(C(N)=O)n3)cc2)CC1` [Compound A27], the IC50 (as a rule, the concentration at which inhibition is half-maximal) under setting [1] was less than 0.1 µM. On the same count and under the same terms, under `NC(=O)c1nn(-c2ccc(O)cc2)cc1NC(=O)c1cccc(C(F)(F)F)n1` [Compound A6] stands less than 0.1 µM; under `NS(=O)(=O)c1nn(-c2ccccc2)cc1NC(=O)c1cccc(-c2cn[nH]c2)n1` [Compound A93], less than 0.1 µM. The same measure, in the same setting: to `O=C(Nc1cn(-c2ccccc2)nc1C(=O)C(F)F)c1cccc(-c2ccn[nH]2)n1` [Compound A244, N-(3-(2,2-difluoroacetyl)-1-phenyl-1H-pyrazol-4-yl)-6-(1H-pyrazol-5-yl)picolinamide] belongs less than 0.1 µM; to `O=C(Nc1cn(-c2cccnc2)nc1C(=O)NC1CC1)c1cccc(-c2ccn[nH]2)n1` [Compound A257, N-(3-(Cyclopropylcarbamoyl)-1-(pyridin-3-yl)-1H-pyrazol-4-yl)-6-(1H-pyrazol-5-yl)picolinamide], less than 0.1 µM.

For the compound `NC(=O)c1nn(-c2ccc(N)cc2)cc1NC(=O)c1cccc(C(F)(F)F)n1` [Compound A9], the half-inhibitory concentration (IC50) under setting [1] was in the range of 0.1 to 1 µM. Still for that read-out and setting: under `CC(C)(O)c1cn(-c2ccccc2)nc1NC(=O)c1cccc(C(F)(F)F)n1` [Compound A61, N-(4-(2-hydroxypropan-2-yl)-1-phenyl-1H-pyrazol-3-yl)-6-(trifluoromethyl)picolinamide] stands greater than 1 µM. Still for that read-out and setting: to `NC(=O)c1cc(-c2ccccc2)sc1NC(=O)c1cccc(C(F)(F)F)n1` [Compound A51] belongs greater than 1 µM; to `O=C(Nc1cn(-c2ccccc2)nc1CO)c1cccc(C(F)(F)F)n1` [Compound A74, N-(3-(hydroxymethyl)-1-phenyl-1H-pyrazol-4-yl)-6-(trifluoromethyl)picolinamide], 0.1 to 1 µM. On the same count and under the same terms, to `NC(=O)c1nn(-c2ccccc2)cc1NC(=O)c1cccc(-c2c[nH]cn2)n1` [Compound A90] belongs less than 0.1 µM. For `NC(=O)c1nn(C2CCC2)cc1NC(=O)c1cnn2ccc(-c3ccn[nH]3)nc12` [Compound A292, N-(3-Carbamoyl-1-cyclobutyl-1H-pyrazol-4-yl)-5-(1H-pyrazol-5-yl)pyrazolo[1,5-a]pyrimidine-3-carboxamide], the IC50 under setting [1] was less than 0.1 µM.

For `COc1nn(C2CCC2)cc1NC(=O)c1cnn2ccc(-c3cn[nH]c3)nc12` [Compound A289, N-(1-cyclobutyl-3-methoxy-1H-pyrazol-4-yl)-5-(1H-pyrazol-4-yl)pyrazolo[1,5-a]pyrimidine-3-carboxamide], under setting [1], the IC50 is less than 0.1 µM.

For `CC(=O)N(C)Cc1ccc(-n2cc(NC(=O)c3cccc(C(F)(F)F)n3)c(C(N)=O)n2)cc1` [Compound A24], the concentration for half-maximal inhibition (IC50) under setting [1] was less than 0.1 µM. Consider `O=C(Nc1cn(-c2ccccc2)nc1C(=O)NC1CC1)c1cccc(-c2ccn[nH]2)n1` [Compound A250, N-(3-(Cyclopropylcarbamoyl)-1-phenyl-1H-pyrazol-4-yl)-6-(1H-pyrazol-5-yl)picolinamide], for which the IC50 under setting [1] was less than 0.1 µM.

Turning to `NC(=O)c1[nH]c(-c2ccccc2)cc1NC(=O)c1cccc(C(F)(F)F)n1` [Compound A48], under setting [1], the half-maximal inhibitory concentration (IC50) was less than 0.1 µM.

`NC(=O)c1nn(-c2ccccc2)cc1NC(=O)c1cccc(-c2cc[nH]n2)n1` [Compound A88]: the IC50 under setting [1] was less than 0.1 µM. On to `CC(C)n1nc(-c2ccccc2)nc1NC(=O)c1cccc(C(F)(F)F)n1` [Compound A108, N-(1-Isopropyl-3-phenyl-1H-1,2,4-triazol-5-yl)-6-(trifluoromethyl)picolinamide], for which, under setting [1], the half-maximal inhibitory concentration (IC50) is greater than 1 µM.

Turning to `CC(C)n1cc(-c2ccccc2)nc1NC(=O)c1cccc(C(F)(F)F)n1` [Compound A107, N-(1-isopropyl-4-phenyl-1H-imidazol-2-yl)-6-(trifluoromethyl)picolinamide], the half-maximal inhibitory concentration (IC50) under setting [1] is greater than 1 µM. In the case of `COc1nn(-c2ccc(N3CCNCC3)cc2)cc1NC(=O)c1cccc(C(F)(F)F)n1` [Compound A39], the IC50 is 0.1 to 1 µM.

In the case of `CC(C)(O)c1nn(C2CCCCC2)cc1NC(=O)c1ccc2cc(C#N)cnn12` [Compound A259, 3-cyano-N-(1-cyclohexyl-3-(2-hydroxypropan-2-yl)-1H-pyrazol-4-yl)pyrrolo[1,2-b]pyridazine-7-carboxamide], under setting [1], the IC50 was 0.1 to 1 µM. Same read-out and setting: to `CC(F)(F)c1cccc(C(=O)Nc2cn(-c3ccccc3)nc2C(=O)NC2CC2)n1` [Compound A265, N-(3-(Cyclopropylcarbamoyl)-1-phenyl-1H-pyrazol-4-yl)-6-(1,1-difluoroethyl)picolinamide] belongs 0.1 to 1 µM; to `O=C(Nc1cn(C2CCCCC2)nc1C(=O)NC1CC1)c1cccc(-c2ccn[nH]2)n1` [Compound A255, N-(1-Cyclohexyl-3-(cyclopropylcarbamoyl)-1H-pyrazol-4-yl)-6-(1H-pyrazol-5-yl)picolinamide], 0.1 to 1 µM. The same measure, in the same setting: under `NC(=O)c1nn(C2CNC2)cc1NC(=O)c1cccc(C(F)(F)F)n1` [Compound A33] stands 0.1 to 1 µM; under `NC(=O)c1nn(-c2cncnc2)cc1NC(=O)c1cccc(C(F)(F)F)n1` [Compound A45], 0.1 to 1 µM; under `CC(C)(O)c1nn(C2CCC2)cc1NC(=O)c1cnn2ccc(-c3ccn[nH]3)nc12` [Compound A290, N-(1-cyclobutyl-3-(2-hydroxypropan-2-yl)-1H-pyrazol-4-yl)-5-(1H-pyrazol-5-yl)pyrazolo[1,5-a]pyrimidine-3-carboxamide], 0.1 to 1 µM. Still for that read-out and setting: to `NS(=O)(=O)c1nn(-c2ccccc2)cc1NC(=O)c1cccc(-c2cc[nH]n2)n1` [Compound A92, N-(1-phenyl-3-sulfamoyl-1H-pyrazol-4-yl)-6-(1H-pyrazol-3-yl)picolinamide] belongs less than 0.1 µM. `O=C(Nc1cn(-c2ccccc2)nc1C(F)F)c1cccc(-c2ccn[nH]2)n1` [Compound A239, N-(3-(Difluoromethyl)-1-phenyl-1H-pyrazol-4-yl)-6-(1H-pyrazol-5-yl)picolinamide]: the half-maximal inhibitory concentration (IC50) under setting [1] is less than 0.1 µM.

Take `O=C(Nc1cn(-c2ccc(N3CCNCC3)cc2)nc1C(F)F)c1cccc(C(F)(F)F)n1` [Compound A42]: the half-maximal inhibitory concentration (IC50) under setting [1] is less than 0.1 µM. Still for that read-out and setting: to `CC(O)c1nn(-c2ccccc2)cc1NC(=O)c1cccc(C(F)(F)F)n1` (centres unmarked) [Compound A75, N-(3-(1-hydroxyethyl)-1-phenyl-1H-pyrazol-4-yl)-6-(trifluoromethyl)picolinamide] belongs 0.1 to 1 µM. Same read-out and setting: to `CC(C)NC(=O)c1nn(-c2ccccc2)cc1NC(=O)c1cccc(-c2ccn[nH]2)n1` [Compound A247, N-(3-(Isopropylcarbamoyl)-1-phenyl-1H-pyrazol-4-yl)-6-(1H-pyrazol-5-yl)picolinamide] belongs 0.1 to 1 µM; to `CC(C)(C)OC(=O)N1CCC(n2cc(NC(=O)c3cccc(C(F)(F)F)n3)c(C(N)=O)n2)CC1` [Compound A1], 0.1 to 1 µM. The same measure, in the same setting: under `O=C(Nc1cn(C2CCC2)nc1C(F)F)c1cnn2ccc(-c3ccn[nH]3)nc12` [Compound A291, N-(1-cyclobutyl-3-(difluoromethyl)-1H-pyrazol-4-yl)-5-(1H-pyrazol-5-yl)pyrazolo[1,5-a]pyrimidine-3-carboxamide] stands less than 0.1 µM; under `NC(=O)c1nn(-c2cccnc2)cc1NC(=O)c1cccc(C(F)(F)F)n1` [Compound A29], 0.1 to 1 µM. Regarding `NC(=O)c1nn(-c2ccccc2)cc1NC(=O)c1cccc(C(F)(F)F)n1` [Compound A5], the concentration for half-maximal inhibition (IC50) under setting [1] was less than 0.1 µM. Same read-out and setting: to `O=C(Nc1cn(C2CCNCC2)nc1C(=O)NC1CC1)c1cccc(-c2ccn[nH]2)n1` [Compound A256, N-(3-(Cyclopropylcarbamoyl)-1-(piperidin-4-yl)-1H-pyrazol-4-yl)-6-(1H-pyrazol-5-yl)picolinamide] belongs less than 0.1 µM; to `CS(=N)(=O)c1nn(-c2ccccc2)cc1NC(=O)c1cccc(-c2cc[nH]n2)n1` (centres unmarked) [Compound A96, N-(3-(S-methylsulfonimidoyl)-1-phenyl-1H-pyrazol-4-yl)-6-(1H-pyrazol-3-yl)picolinamide], 0.1 to 1 µM. On the same count and under the same terms, under `NC(=O)c1nn(C2COC3(CCNCC3)C2)cc1NC(=O)c1cccc(C(F)(F)F)n1` (centres unmarked) [Compound A35] stands 0.1 to 1 µM; under `COCc1ccc(-n2cc(NC(=O)c3cccc(C(F)(F)F)n3)c(C(N)=O)n2)cc1` [Compound A19], less than 0.1 µM; under `COc1ccc(-n2cc(NC(=O)c3cccc(C(F)(F)F)n3)c(C(N)=O)n2)cc1` [Compound A7], 0.1 to 1 µM. `NC(=O)c1nn(-c2ccc(N3CCNCC3)cc2)cc1NC(=O)c1cccc(C(F)(F)F)n1` [Compound A25]: the IC50 under setting [1] was less than 0.1 µM. As for `NC(=O)c1nn(C23CC(C2)C3)cc1NC(=O)c1cccc(C(F)(F)F)n1` [Compound A258], under setting [1], the IC50 was 0.1 to 1 µM.
